Where two headings read alike, the source gives them in different places.
Tests used:
mu opioid receptor = mu opioid receptor (Rattus norvegicus, UniProt P33535); assay: Rat brain mu opioid receptor binding assay ([3H]DAMGO); settings: Rat mu opioid receptor binding constant, rat forebrain membranes, ~0.8 nM [3H]DAMGO
Procedure: Rat Brain Mu Opioid Receptor Binding Assay
(§1) Procedure: Male, Sprague Dawley rats (150-250 g, VAF, Charles River, Kingston, N.Y.) were killed by CO2, and their brains removed and placed immediately in ice cold Tris HCl buffer (50 mM, pH 7.4). The forebrains were separated from the remainder of the brain by a coronal transection, beginning dorsally at the colliculi and passing ventrally through the midbrain-pontine junction. After dissection, the forebrains were homogenized in Tris buffer in a Teflon®-glass homogenizer. The homogenate was diluted to a concentration of 1 g of forebrain tissue per 80 mL Tris and centrifuged at 39,000×g for 10 min. The pellet was resuspended in the same volume of Tris buffer containing 5 mM MgCl2 with several brief pulses from a Polytron homogenizer. This particulate preparation was used for the delta opioid binding assays.
(§2) Analysis: The data from the scintillation counter were used to calculate either the % inhibition compared to control binding (when only a single concentration of test compound was evaluated) or a Ki value (when a range of concentrations tested). Percent inhibition was calculated as: [(total dpm-test compound dpm)/(total dpm-nonspecific dpm)]*100. Kd and Ki values were calculated using GraphPad PRISM data analysis program.

delta opioid receptor = delta opioid receptor (Rattus norvegicus, UniProt P33533); assay: Rat brain delta opioid receptor binding assay ([3H]DPDPE); settings: Rat delta opioid receptor binding constant, rat forebrain membranes, ~4 nM [3H]DPDPE
delta opioid receptor, sequence (P33533 whole entry): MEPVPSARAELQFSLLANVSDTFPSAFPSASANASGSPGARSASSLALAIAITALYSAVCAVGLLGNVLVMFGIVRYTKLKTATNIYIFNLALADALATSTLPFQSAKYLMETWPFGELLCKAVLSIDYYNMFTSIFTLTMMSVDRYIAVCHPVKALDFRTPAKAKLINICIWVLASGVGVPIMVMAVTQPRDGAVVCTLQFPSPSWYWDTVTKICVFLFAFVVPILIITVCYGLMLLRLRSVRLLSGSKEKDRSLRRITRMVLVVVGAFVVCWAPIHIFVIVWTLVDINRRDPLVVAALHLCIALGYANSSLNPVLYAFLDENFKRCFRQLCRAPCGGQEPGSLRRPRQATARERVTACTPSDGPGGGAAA
Procedure: Rat Brain Delta Opioid Receptor Binding Assay
as §1, with “assays. Following incubation with the delta selective peptide ligand ˜4 nM [^3H]DPDPE at 25° C. for 2.5 h in a 96-well plate with total volume of 1 mL, the plate contents were filtered through Wallac filtermat B sheets on a Tomtec 96-well harvester. The filters were rinsed three times with 2 mL of 10 mM HEPES (pH 7.4), and dried in a 650 W microwave oven for 1.75 min twice. To each sample area 2×50 μL of Betaplate Scint scintillation fluid (LKB) was added and the radioactivity quantified on a LKB (Wallac) 1205 BetaPlate liquid scintillation counter.” for “assays.”
as §2, with “concentrations was” for “concentrations”

mu opioid receptor, sequence (P33535 whole entry): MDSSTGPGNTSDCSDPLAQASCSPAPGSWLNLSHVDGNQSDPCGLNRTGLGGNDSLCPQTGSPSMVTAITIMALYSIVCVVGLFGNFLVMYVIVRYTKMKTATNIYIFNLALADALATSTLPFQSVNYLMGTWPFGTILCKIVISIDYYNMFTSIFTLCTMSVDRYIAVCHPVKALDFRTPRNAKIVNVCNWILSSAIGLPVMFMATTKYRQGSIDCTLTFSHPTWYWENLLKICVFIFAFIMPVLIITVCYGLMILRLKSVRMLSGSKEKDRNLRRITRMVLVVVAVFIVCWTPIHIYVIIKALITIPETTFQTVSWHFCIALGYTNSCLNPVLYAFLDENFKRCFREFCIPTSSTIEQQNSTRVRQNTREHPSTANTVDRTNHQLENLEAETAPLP

CCc1cnc(-c2ccc3c(c2)Oc2ccccc2C3=C2CC3CCC(C2)N3)[nH]1 [Cpd 26, 3-[3-(5-Ethyl-1 H-imidazol-2-yl)-xanthen-9-ylidene]-8-aza-bicyclo[3.2.1]-octane]
Ki (mu opioid receptor; MOR Ki): 249 nM
Ki (delta opioid receptor; DOR Ki): 81 nM

CC(=O)Nc1ccccc1-c1ccc2c(c1)Sc1ccccc1C2=C1CC2CCC(C1)N2C [Cpd 118]
Ki (mu opioid receptor; read-out: MOR Ki): 2070 nM
Ki (delta opioid receptor; read-out: DOR Ki): 612 nM

Cc1nc(-c2ccc3c(c2)Oc2ccccc2C3=C2CC3CCC(C2)N3)no1 [Cpd 36, 3-[3-(5-Methyl-[1,2,4]oxadiazol-3-yl)-xanthen-9-ylidene]-8-aza-bicyclo[3.2.1]octane]
Ki (mu opioid receptor; MOR Ki): 3550 nM
Ki (delta opioid receptor; DOR Ki): 373 nM

CS(=O)(=O)Nc1cccc(-c2ccc3c(c2)Oc2ccccc2C3=C2CC3CCC(C2)N3)c1 [Cpd 63]
Ki (mu opioid receptor; MOR Ki): 5120 nM
Ki (delta opioid receptor; DOR Ki): 161 nM

N=C(c1ccc2c(c1)Oc1ccccc1C2=C1CC2CCC(C1)N2)N1CCCCC1 [Cpd 43]
Ki (mu opioid receptor; MOR Ki): 5340 nM
Ki (delta opioid receptor; DOR Ki): 496 nM

CN(Cc1ccccc1)C(=O)c1ccc2c(c1)Oc1ccccc1C2=C1CC2CCC(C1)N2 [Cpd 52]
Ki (mu opioid receptor; MOR Ki): 1830 nM
Ki (delta opioid receptor; DOR Ki): 2730 nM

c1ccc(Sc2ccc3c(c2)Sc2ccccc2C3=C2CC3CCC(C2)N3)cc1 [Cpd 83, 3-(3-Phenylsulfanyl-thioxanthen-9-ylidene)-8-aza-bicyclo[3.2.1]octane]
Ki (mu opioid receptor; MOR Ki): > 10000 nM
Ki (delta opioid receptor; DOR Ki): 8510 nM

O=C(O)c1ccc2c(c1)Oc1ccccc1C2=C1CC2CCC(C1)N2 [Cpd 72]
Ki (mu opioid receptor; read-out: MOR Ki): 1960 nM
Ki (delta opioid receptor; read-out: DOR Ki): 216 nM

c1ccc2c(c1)Oc1cc(C3=NCCCN3)ccc1C2=C1CC2CCC(C1)N2 [Cpd 41]
Ki (mu opioid receptor; MOR Ki): 875 nM
Ki (delta opioid receptor; DOR Ki): 464 nM

COc1cccc2c1Oc1cc(-c3noc(=S)[nH]3)ccc1C2=C1CC2CCC(C1)N2 [Cpd 133, 3-[9-(8-Aza-bicyclo[3.2.1]oct-3-ylidene)-5-methoxy-9H-xanthen-3-yl]-4H-[1,2,4]oxadiazole-5-thione]
Ki (mu opioid receptor; MOR Ki): 371 nM
Ki (delta opioid receptor; DOR Ki): 2.37 nM

Cn1ccc(-c2ccc3c(c2)Oc2ccccc2C3=C2CC3CCC(C2)N3)n1 [Cpd 111]
Ki (mu opioid receptor; MOR Ki): 2640 nM
Ki (delta opioid receptor; DOR Ki): 220 nM

Nc1ccc(-c2ccc3c(c2)Oc2ccccc2C3=C2CC3CCC(C2)N3)cc1 [Cpd 42]
Ki (mu opioid receptor; MOR Ki): 1310 nM
Ki (delta opioid receptor; DOR Ki): 490 nM

COC(=O)[C@H](CO)NC(=O)c1ccc2c(c1)Oc1ccccc1C2=C1CC2CCC(C1)N2 [Cpd 37]
Ki (mu opioid receptor; MOR Ki): 950 nM
Ki (delta opioid receptor; DOR Ki): 412 nM

N=C(c1ccc2c(c1)Oc1ccccc1C2=C1CC2CCC(C1)N2)N1CCOCC1 [Cpd 50]
Ki (mu opioid receptor; MOR Ki): 14900 nM
Ki (delta opioid receptor; DOR Ki): 1760 nM

O=S1NC(c2ccc3c(c2)Oc2ccccc2C3=C2CC3CCC(C2)N3)=NO1 (stereo not shown) [Cpd 10, 3-[3-(2-Oxo-2,3-dihydro-2|4-[1,2,3,5]oxathiadiazol-4-yl)-xanthen-9-ylidene]-8-aza-bicyclo[3.2.1]octane]
Ki (mu opioid receptor; MOR Ki): 819 nM
Ki (delta opioid receptor; DOR Ki): 15.1 nM

CC(C)(CO)NC(=O)c1ccc2c(c1)Oc1ccccc1C2=C1CC2CCC(C1)N2 [Cpd 97]
Ki (mu opioid receptor; read-out: MOR Ki): 1900 nM
Ki (delta opioid receptor; read-out: DOR Ki): 266 nM

N#Cc1ccc2c(c1)Sc1ccccc1C2=C1CC2CCC(C1)N2 [Cpd 85, 9-(8-Aza-bicyclo[3.2.1]oct-3-ylidene)-9H-thioxanthene-3-carbonitrile]
Ki (mu opioid receptor; MOR Ki): 2310 nM
Ki (delta opioid receptor; DOR Ki): 629 nM

O=c1[nH]c(-c2ccc3c(c2)Oc2c(O)cccc2C3=C2CC3CCC(C2)N3)no1 [Cpd 134, 3-[9-(8-Aza-bicyclo[3.2.1]oct-3-ylidene)-5-hydroxy-9H-xanthen-3-yl]-4H-[1,2,4]oxadiazol-5-one]
Ki (mu opioid receptor; MOR Ki): 2 nM
Ki (delta opioid receptor; DOR Ki): 0.12 nM

OCc1cccc(-c2ccc3c(c2)Oc2ccccc2C3=C2CC3CCC(C2)N3)c1 [Cpd 23]
Ki (mu opioid receptor; MOR Ki): 3510 nM
Ki (delta opioid receptor; DOR Ki): 75 nM

CN(CCc1ccccc1)C(=O)c1ccc2c(c1)Oc1ccccc1C2=C1CC2CCC(C1)N2 [Cpd 17]
Ki (mu opioid receptor; MOR Ki): 37 nM
Ki (delta opioid receptor; DOR Ki): 37 nM

Nc1ccccc1-c1ccc2c(c1)Oc1ccccc1C2=C1CC2CCC(C1)N2 [Cpd 25]
Ki (mu opioid receptor; MOR Ki): 1660 nM
Ki (delta opioid receptor; DOR Ki): 77.4 nM

O=c1[nH]c(-c2ccc3c(c2)Oc2ccccc2C3=C2CC3CCC(C2)N3)ns1 [Cpd 95]
Ki (mu opioid receptor; read-out: MOR Ki): 4930 nM
Ki (delta opioid receptor; read-out: DOR Ki): 159 nM

CCN(CC)C(=N)c1ccc2c(c1)Oc1ccccc1C2=C1CC2CCC(C1)N2 [Cpd 9, 9-(8-Aza-bicyclo[3.2.1]oct-3-ylidene)-N,N-diethyl-9H-xanthene-3-carboxamidine]
Ki (mu opioid receptor; MOR Ki): 3540 nM
Ki (delta opioid receptor; DOR Ki): 14 nM

O=C(c1ccc2c(c1)Oc1ccccc1C2=C1CC2CCC(C1)N2)N1CCC(O)C1 (single isomer, unassigned) [Cpd 127]
Ki (mu opioid receptor; MOR Ki): 907 nM
Ki (delta opioid receptor; DOR Ki): 191 nM

COc1ccccc1-c1ccc2c(c1)Oc1ccccc1C2=C1CC2CCC(C1)N2 [Cpd 44]
Ki (mu opioid receptor; MOR Ki): 7580 nM
Ki (delta opioid receptor; DOR Ki): 659 nM

COc1cccc2c1Oc1cc(-c3noc(=O)[nH]3)ccc1C2=C1CC2CCC(C1)N2 [Cpd 132, 3-[9-(8-Aza-bicyclo[3.2.1]oct-3-ylidene)-5-methoxy-9H-xanthen-3-yl]-4H-[1,2,4]oxadiazol-5-one]
Ki (mu opioid receptor; MOR Ki): 254 nM
Ki (delta opioid receptor; DOR Ki): 0.32 nM

O=C(NCCO)c1ccc2c(c1)Oc1ccccc1C2=C1CC2CCC(C1)N2 [Cpd 123]
Ki (mu opioid receptor; read-out: MOR Ki): 1020 nM
Ki (delta opioid receptor; read-out: DOR Ki): 106 nM

c1ccc2c(c1)Oc1cc(-c3ccsc3)ccc1C2=C1CC2CCC(C1)N2 [Cpd 55]
Ki (mu opioid receptor; MOR Ki): 9280 nM
Ki (delta opioid receptor; DOR Ki): 4720 nM

COc1cccc(-c2ccc3c(c2)Oc2ccccc2C3=C2CC3CCC(C2)N3)c1 [Cpd 57]
Ki (mu opioid receptor; MOR Ki): 19700 nM
Ki (delta opioid receptor; DOR Ki): 6960 nM

O=C(NCCc1ccccc1)c1ccc2c(c1)Oc1ccccc1C2=C1CC2CCC(C1)N2 [Cpd 19]
Ki (mu opioid receptor; MOR Ki): 438 nM
Ki (delta opioid receptor; DOR Ki): 45 nM

c1cncc(-c2ccc3c(c2)Sc2ccccc2C3=C2CC3CCC(C2)N3)c1 [Cpd 112, 3-(3-Pyridin-3-yl-thioxanthen-9-ylidene)-8-aza-bicyclo[3.2.1]octane]
Ki (mu opioid receptor; MOR Ki): 1010 nM
Ki (delta opioid receptor; DOR Ki): 481 nM

Oc1cccc(-c2ccc3c(c2)Oc2ccccc2C3=C2CC3CCC(C2)N3)c1 [Cpd 38]
Ki (mu opioid receptor; MOR Ki): 706 nM
Ki (delta opioid receptor; DOR Ki): 418 nM

O=C(NC1CCC(C(F)(F)F)CC1)c1ccc2c(c1)Oc1ccccc1C2=C1CC2CCC(C1)N2 (stereo not shown) [Cpd 62]
Ki (mu opioid receptor; read-out: MOR Ki): 7400 nM
Ki (delta opioid receptor; read-out: DOR Ki): 309 nM

CN(C(=O)c1ccc2c(c1)Oc1ccccc1C2=C1CC2CCC(C1)N2)C1CCCCC1 [Cpd 22]
Ki (mu opioid receptor; MOR Ki): 1120 nM
Ki (delta opioid receptor; DOR Ki): 54.9 nM

COC(=O)c1ccc2c(c1)Oc1cc(C(=O)OC)ccc1C2=C1CC2CCC(C1)N2 [Cpd 78, 9-(8-Aza-bicyclo[3.2.1]oct-3-ylidene)-9H-xanthene-3,6-dicarboxylic acid dimethyl ester]
Ki (mu opioid receptor; MOR Ki): 7000 nM
Ki (delta opioid receptor; DOR Ki): 1150 nM

COc1cccc2c1Oc1cc(-c3ccsc3)ccc1C2=C1CC2CCC(C1)N2 [Cpd 106]
Ki (mu opioid receptor; read-out: MOR Ki): 2740 nM
Ki (delta opioid receptor; read-out: DOR Ki): 281 nM

c1ccc(CN2C3CCC2CC(=C2c4ccccc4Sc4cc(-c5cccnc5)ccc42)C3)nc1 [Cpd 117]
Ki (mu opioid receptor; MOR Ki): 97 nM
Ki (delta opioid receptor; DOR Ki): 95 nM

COC(=O)c1ccc2c(c1)Oc1ccccc1C2=C1CC2CCC(C1)N2 [Cpd 73]
Ki (mu opioid receptor; read-out: MOR Ki): 6340 nM
Ki (delta opioid receptor; read-out: DOR Ki): 1010 nM

CC(=O)Nc1ccccc1-c1ccc2c(c1)Oc1ccccc1C2=C1CC2CCC(C1)N2C(=O)C(F)(F)F [Cpd 130]
Ki (mu opioid receptor; read-out: MOR Ki): > 10000 nM
Ki (delta opioid receptor; read-out: DOR Ki): > 10000 nM

COc1cccc2c1Oc1cc(Br)ccc1C2=C1CC2CCC(C1)N2 [Cpd 79]
Ki (mu opioid receptor; MOR Ki): 4780 nM
Ki (delta opioid receptor; DOR Ki): 192 nM

CC(=O)Nc1ccccc1-c1ccc2c(c1)Sc1ccccc1C2=C1CC2CCC(C1)N2Cc1ccoc1 [Cpd 120]
Ki (mu opioid receptor; read-out: MOR Ki): 183 nM
Ki (delta opioid receptor; DOR Ki): 54 nM

CC(C)NC(=N)c1ccc2c(c1)Oc1ccccc1C2=C1CC2CCC(C1)N2 [Cpd 39]
Ki (mu opioid receptor; MOR Ki): 5170 nM
Ki (delta opioid receptor; DOR Ki): 441 nM

CCOC(=O)N1C2CCC1CC(=C1c3ccccc3Oc3cc(C(=O)N(C)CCO)ccc31)C2 [Cpd 75]
Ki (mu opioid receptor; read-out: MOR Ki): 10000 nM
Ki (delta opioid receptor; read-out: DOR Ki): 4470 nM

CN1C2CCC1CC(=C1c3ccccc3Sc3cc(-c4cccnc4)ccc31)C2 [Cpd 114]
Ki (mu opioid receptor; MOR Ki): 109 nM
Ki (delta opioid receptor; DOR Ki): 108 nM
